Experimental findings from US20250101446A1, “METHOD FOR GENETIC TRANSFORMATION OF PLANT ORGANELLE GENOME AND USES THEREOF” (Solar Grants Biotechnology Inc., priority 2022, published 2025) are described below.

The test system of series [1] is human NSCLC cell line NCI-H1792. Put plainly: Attenuation of P1-induced IL-6 secretion in NCI-H1792 cells by pre-treatment with plant-produced cytokines (ELISA). It counts as cell-based. To be noted: control protein bearing an identical His-tag. For orientation: An ELISA detects its analyte on a solid surface through an enzyme-linked reagent.
For series [2], the system named is human metastatic breast cancer cell line MDA-MB-231. Nature of the series: IL-6 secretion by MDA-MB-231 cells (P1 stimulation, plantakine pre-incubation; ELISA). It counts as cell-based. How it is done: IL-6 secretion by the human metastatic breast cancer cell line MDA-MB-231 into the conditioned media was measured by ELISA. The cells were pre-incubated for 3 h in the presence of plant-produced recombinant IL-38 or IL-37b at the indicated concentrations (ng/ml) prior to stimulation with peptide P1 (10 mM). PBS (1×) was added to the control. Shown are the average results of 3 independent experiments. ** P<0.01; * P<0.05, compared with the control.
Correct folding of plant-produced IL-38 and IL-37b anti-inflammatory cytokines was assessed by enzyme-linked immunosorbent assay (ELISA) using the DuoSet Human IL-38/IL-1F10 kit (R&D systems) and the Human IL-37/IL-1F7 uncoated ELISA kit (Invitrogen), respectively, following the instructions of the manufacturers. Secreted IL-6 was assessed using the Human IL-6 Uncoated ELISA kit (Invitrogen).

For series [3], the system named is human NSCLC cell line NCI-H1792. Put plainly: IL-6 secretion by NCI-H1792 cells incubated with NSP10-derived peptides (ELISA). To be noted: peptide 24 h. The class given is cell-based.
Another series is described as follows: in vitro. To be noted: human.
In another series the test system is SARS-COV-2. The class given is cell-based. Particulars: at 200 µM concentration.

For “GFP: His-tag containing plant-produced Green Fluorescent Protein used as control protein [reference compound]”, in series [1], the “attenuation of P1-induced IL-6 expression (in words)” value is “did not result in any significant attenuation”.
Turning to `CC[C@H](C)[C@H](NC(=O)[C@H](Cc1c[nH]cn1)NC(=O)[C@H](CS)NC(=O)[C@H](CCCNC(=N)N)NC(=O)[C@H](CS)NC(=O)[C@H](Cc1ccc(O)cc1)NC(=O)[C@H](CC(C)C)NC(=O)[C@H](CS)NC(=O)[C@H](CS)NC(=O)[C@H](CO)NC(=O)[C@H](C)NC(=O)CNC(=O)CNC(=O)[C@H](Cc1ccccc1)NC(=O)CNC(=O)[C@H](CO)NC(=O)CNC(=O)[C@H](CCCNC(=N)N)NC(=O)[C@H](CCCNC(=N)N)NC(=O)[C@H](CCCNC(=N)N)NC(=O)[C@H](CCC(N)=O)NC(=O)[C@H](CCCNC(=N)N)NC(=O)[C@H](CCCNC(=N)N)NC(=O)[C@H](CCCCN)NC(=O)[C@H](CCCCN)NC(=O)[C@H](CCCNC(=N)N)NC(=O)CNC(=O)[C@H](Cc1ccc(O)cc1)NC(C)=O)C(=O)N[C@@H](CC(=O)O)C(=O)N[C@@H](Cc1c[nH]cn1)C(=O)N1CCC[C@H]1C(=O)N[C@@H](CC(N)=O)C(=O)N1CCC[C@H]1C(=O)N[C@@H](CCCCN)C(=O)NCC(=O)N[C@@H](Cc1ccccc1)C(=O)N[C@@H](CS)C(=O)N[C@@H](CC(=O)O)C(=O)N[C@@H](CC(C)C)C(=O)N[C@@H](CCCCN)C(=O)NCC(=O)N[C@@H](CCCCN)C(=O)N[C@@H](Cc1ccc(O)cc1)C(N)=O` [P1], the “IL-6 secretion on treatment with peptide (in words)” value in series [2] was “strongly increased”. In addition, in series [3] (normalized to PBS control), the “stimulation of the intrinsic secretion of IL-6” value is reported as more than 4 fold. In “in vitro”, this compound returned a CC50 of 11 µM.
Take “YGRKKRRQRRRGSG (HIV-Tat peptide sequence) [TAT sequence peptide, 42, reference compound]”: the “stimulation / induction of IL-6 secretion (in words)” value in series [3] was “not”.
For `CC[C@H](C)[C@H](NC(=O)[C@H](CCCNC(=N)N)NC(=O)[C@H](CS)NC(=O)[C@H](CCCNC(=N)N)NC(=O)[C@H](CS)NC(=O)[C@H](Cc1ccc(O)cc1)NC(=O)[C@H](CC(C)C)NC(=O)[C@H](CS)NC(=O)[C@H](CS)NC(=O)[C@H](CO)NC(=O)[C@H](C)NC(=O)CNC(=O)CNC(=O)[C@H](Cc1ccccc1)NC(=O)CNC(=O)[C@H](CO)NC(=O)CNC(=O)[C@H](CCCNC(=N)N)NC(=O)[C@H](CCCNC(=N)N)NC(=O)[C@H](CCCNC(=N)N)NC(=O)[C@H](CCC(N)=O)NC(=O)[C@H](CCCNC(=N)N)NC(=O)[C@H](CCCNC(=N)N)NC(=O)[C@H](CCCCN)NC(=O)[C@H](CCCCN)NC(=O)[C@H](CCCNC(=N)N)NC(=O)CNC(=O)[C@H](Cc1ccc(O)cc1)NC(C)=O)C(=O)N[C@@H](CC(=O)O)C(=O)N[C@@H](Cc1c[nH]cn1)C(=O)N1CCC[C@H]1C(=O)N[C@@H](CC(N)=O)C(=O)N1CCC[C@H]1C(=O)N[C@@H](CCCCN)C(=O)NCC(=O)N[C@@H](Cc1ccccc1)C(=O)N[C@@H](CS)C(=O)N[C@@H](CC(=O)O)C(=O)N[C@@H](CC(C)C)C(=O)N[C@@H](CCCCN)C(=O)NCC(=O)N[C@@H](CCCCN)C(=O)N[C@@H](Cc1ccc(O)cc1)C(N)=O` [P2], the “effect against the virus-infected cells” value in the series on SARS-COV-2 is reported as “no detectable effect”. In series [3], the “stimulation / induction of IL-6 secretion (in words)” value was “no IL-6 induction”. The same compound displayed a CC50 in the series “in vitro” of more than 200 µM.
